Entries after “also recorded” stand apart in the source; their conditions may differ.
What was measured:
HT-29 xenograft tumors = assay: Therapy study of [^177Lu]-3BP-227 and [^225Ac]-3BP-227 in CD-1 Nude mice bearing HT-29 xenograft tumors; format: in vivo; conditions: for tumor growth inhibition relative to controls: single i.v. dose 4.5 mCi per mouse (8,325 MBq/kg), HT-29 xenografts, monitored 34 days
Method: (§1) For therapeutic efficacy studies, single doses of 3,885-8,325 MBq/kg of [^177Lu]-3BP-227 (2,100-4,500 μCO or 1.85-5.55 MBq/kg of [^225Ac]-3BP-227 (1-3 μCO were administered to animals bearing HT29 xenografts (average tumor volume=212±46 mm^3), and tumor growth was monitored for 77 days. Mice in the control group were administered vehicle alone (10% ethanol in PBS). Study endpoints included tumor volume measurement and/or impact to animal health status.
A therapy efficacy study of [^177Lu]-3BP-227 and [^225Ac]-3BP-227 was conducted in mice comprising the following: • 1. 30 CD-1 Nude mice (5-6 week-old females; Charles River Laboratories) bearing subcutaneous HT-29 (ATCC #HTB-38; colorectal adenocarcinoma) tumor xenografts distributed amongst 5 groups (n=6). There were two groups each treated with [^177Lu]-3BP-227 or [^225Ac]-3BP-227 and 1 control group (below). • 2. Target dose of radioactivity was 2.1 or 4.5 mCi of [^177Lu]-3BP-227 per mouse, or 1 or 3 μCi of [^225Ac]-3BP-227 per mouse, for radiotherapy groups. • 3. Mice in the control group were administered vehicle alone (10% ethanol in PBS). • 4. For all groups, tumor size and mouse weight were monitored for 34-77 days. Relative tumor volume, relative mouse weight, and tumor regression relative to control were also calculated.
Perform an in vivo therapy study to determine the efficacy of [^177Lu]-3BP-227 and [^225Ac]-3BP-227, for the treatment of subcutaneous HT-29 xenograft tumors in nude mice.
Groups of CD-1 Nude female mice (five groups; n=6 each, 30 total) will be administered radiolabelled test articles via intravenous injection once.
[^177Lu]-3BP-227 will be dissolved in PBS containing 10% ethanol and prepared at a concentration of about 13 mCi/mL and about 25 mCi/mL. [^177Lu]-3BP-227 compounds would be administered (in 200 μL) at a dose of 2.1 mCi (about 13 mCi/mL stock) or 4.5 mCi (about 25 mCi/mL stock) to two groups of animals (n=12 total). [^225Ac]-3BP-227 will be dissolved in PBS containing 10% ethanol and prepared at a concentration of 5 μCi/mL and 15 μCi/mL. [^225Ac]-3BP-227 compounds will be administered (in 200 μL) at a dose of 1 μCi (5 μCi/ml stock) or 3 μCi (15 μCi/mL stock) to two groups of animals (n=12 total). […] The length (L) and width (W) of the tumor will be measured three times a week up to day 28, and the tumor volume will be calculated as per Section 13, Data Calculations and Statistical Analysis. […]
1. Tumor volume is calculated according to the formula: TV=(L×W^2)×0.52, where L is the longest diameter (length) of the tumor and W is the shortest diameter (width) of the tumor. Tumor volume at day n is expressed as relative tumor volume (RTV) according to the following formula: RTV=TVn/TV0, where TVn is the tumor volume at day n, and TV0 is the tumor volume at day 0. […]

[1] = Acute toxicity in mice with [^177Lu]-3BP-227 therapy (earlier studies); format: in vivo; conditions: earlier [^177Lu]-3BP-227 therapy studies in mice
293 tumor xenografts = assay: Uptake into 293 tumor xenografts, which do not express NTSR1; format: in vivo; conditions: 293 tumor xenografts (no NTSR1 expression)
Text: (§2) The compounds to be evaluated are [^177Lu]-3BP-227 and [^225Ac]-3BP-227, which are the ^177Lu and ^225Ac radiolabelled versions, respectively, of the compound of Formula I (also referred as 3BP-227). NTSR1 is overexpressed in several types of cancer, e.g., pancreatic ductal adenocarcinoma (PDAC), Ewing's sarcoma and prostate cancer, but it is rarely expressed in normal tissues.

HT-29 xenografts [2] = assay: Earlier [^177Lu]-3BP-227 therapy study (Study 1), HT-29 xenografts in nude mice; format: in vivo
[3] = system: NTSR1-expressing HT-29 xenograft tumors; assay: Uptake and persistence in NTSR1-expressing HT-29 xenograft tumors; format: in vivo; conditions: NTSR1-expressing HT-29 xenograft tumors in Nude mice
Text: as §2

[4] = Tolerability (mouse weight, health status) in the therapy study; format: in vivo, CD-1 Nude mice
Method: as §1
A therapy efficacy study of [^177Lu]-3BP-227 and [^225Ac]-3BP-227 was conducted in mice comprising the following: • 1. […] Target dose of radioactivity was 2.1 or 4.5 mCi of [^177Lu]-3BP-227 per mouse, or 1 or 3 μCi of [^225Ac]-3BP-227 per mouse, for radiotherapy groups. • 3. […] For all groups, tumor size and mouse weight were monitored for 34-77 days. Relative tumor volume, relative mouse weight, and tumor regression relative to control were also calculated.
[^177Lu]-3BP-227 will be dissolved in PBS containing 10% ethanol and prepared at a concentration of about 13 mCi/mL and about 25 mCi/mL. […] The length (L) and width (W) of the tumor will be measured three times a week up to day 28, and the tumor volume will be calculated as per Section 13, Data Calculations and Statistical Analysis. […]

HT-29 xenografts [5] = assay: Earlier [^177Lu]-3BP-227 therapy study (Study 2), HT-29 xenografts; format: in vivo, nude mice; conditions: 4.5 mCi per mouse, tumor volume about 450 mm^3 at injection

Compound: COc1cccc(OC)c1-c1cc(C(=O)NC2(C(=O)O)C3CC4CC(C3)CC2C4)nn1-c1ccc(C(=O)N(C)CCCN(C)CCCN(C)C(=O)CN2CCN(CC(=O)[O-])CCN(CC(=O)[O-])CCN(CC(=O)[O-])CC2)cc1C(C)C.[177Lu+3] (stereo not shown) [[^177Lu]-3BP-227]
- frequency of significant tumor regrowth (HT-29 xenograft tumors; 4.5 mCi [^177Lu]-3BP-227 versus 1 μCi [^225Ac]-3BP-227 group): significant tumor regrowth was more frequent
- duration of tumor growth inhibition relative to controls (HT-29 xenograft tumors; 4.5 mCi group, whole monitoring period): 34 days
- tumor growth inhibition relative to controls (HT-29 xenograft tumors): inhibition in the growth of tumors; also recorded: significant and durable tumor growth inhibition
- tumor growth inhibition relative to controls (HT-29 xenograft tumors; listed as [^177Lu]3BP-227): efficacious at suppressing tumor growth
- acute toxicity [1]: no observed acute toxicity
- tumor uptake (293 tumor xenografts): minimal uptake
- inhibition of tumor growth (HT-29 xenografts [2]; about 2.1 mCi per mouse): somewhat inhibited tumor growth
- suppression of tumor growth (HT-29 xenografts [2]; about 4.5 mCi per mouse, tumor volume about 200 mm^3 at injection): effective as a therapy for suppressing tumor growth
- duration of tumor growth suppression (HT-29 xenografts [2]; particularly evident at about 4.5 mCi per mouse): at least 60 days
- tumor uptake and persistence [3]: good uptake and persistence
- weight gain compared with vehicle control ([4]; 2.1 and 4.5 mCi groups, 34 days): indistinguishable weight gain
- treatment-related toxicities ([4]; all dose groups of the studies): no treatment-related toxicities observed
- suppression of HT-29 tumor growth (HT-29 xenografts [5]): not efficacious at suppressing HT-29 tumor growth

— US20240165280A1, “METHODS FOR TREATMENT OF CANCERS” (Fusion Pharmaceuticals Inc., priority 2021, published 2024)
